Target: human activated kallikrein enzyme (Homo sapiens (Human), UniProt P03952)
Assay: Inhibition of human activated kallikrein enzyme, fluorogenic peptide substrate assay (two formats)
Assay type: biochemical
Conditions: Table 2; column head prints nM, ranges defined in μM; read-out: pKal EC50
Description: The example compounds were evaluated for inhibition of the human activated kallikrein enzyme in two formats of an assay employing a fluorogenic peptide substrate. In one assay format, the concentrations of reagents were as follows: 20 mM Tris pH 7.5, 1 mM EDTA, 150 mM sodium chloride, 0.1% PEG-400, 0.1% Triton X-100, 500 pM activated kallikrein enzyme, 300 uM Pro-Phe-Arg-7-amido-4-methylcoumarin substrate. Prior to reaction initiation with substrate, enzyme and inhibitors were preincubated for 30 min at room temperature. After initiation with substrate, reactions were incubated for 10 min at room temperature and fluorescence emission at 460 nm from 380 nm excitation measured with a microplate reader. In another assay format, the concentrations of reagents were as follows: 20 mM Tris pH 7.5, 1 mM EDTA, 150 mM sodium chloride, 0.1% PEG-400, 0.1% Triton X-100, 5 pM activated kallikrein enzyme, 300 uM Pro-Phe-Arg-7-amido-4-methylcoumarin substrate. Prior to reaction initiation with substrate, enzyme and inhibitors were preincubated for 30 min at room temperature. After initiation with substrate, reactions were incubated for 18 hr at room temperature and fluorescence emission at 460 nm from 380 nm excitation measured with a microplate reader.

Chain of human activated kallikrein enzyme (P03952 391-638): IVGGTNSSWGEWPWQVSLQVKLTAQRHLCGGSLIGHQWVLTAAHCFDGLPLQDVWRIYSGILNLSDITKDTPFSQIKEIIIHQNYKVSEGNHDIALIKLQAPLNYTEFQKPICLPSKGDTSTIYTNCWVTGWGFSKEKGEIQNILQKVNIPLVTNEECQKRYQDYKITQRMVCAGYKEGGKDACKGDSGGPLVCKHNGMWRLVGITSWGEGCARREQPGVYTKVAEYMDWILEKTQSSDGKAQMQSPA
Chain of human activated kallikrein enzyme (P03952 20-390 partner): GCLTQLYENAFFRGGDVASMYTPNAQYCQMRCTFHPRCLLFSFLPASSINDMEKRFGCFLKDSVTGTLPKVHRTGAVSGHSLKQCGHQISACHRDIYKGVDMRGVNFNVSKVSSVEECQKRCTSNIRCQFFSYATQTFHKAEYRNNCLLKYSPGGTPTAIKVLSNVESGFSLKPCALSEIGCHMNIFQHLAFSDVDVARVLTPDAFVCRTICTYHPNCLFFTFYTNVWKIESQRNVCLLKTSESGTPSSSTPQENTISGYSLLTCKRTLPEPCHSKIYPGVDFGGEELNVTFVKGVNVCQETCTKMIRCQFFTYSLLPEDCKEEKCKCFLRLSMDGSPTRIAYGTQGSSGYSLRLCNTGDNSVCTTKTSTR

Structure (SMILES) | EC50
CNC(=O)[C@H](CCCCNC(=N)N)NC(=O)c1csc([C@@H]2C[C@H](O)CN2C(=O)c2cn3cc(Cl)ccc3n2)n1 [Compound 37, 2-((2S,4S)-1-(6-Chloroimidazo[1,2-a]pyridine-2-carbonyl)-4-hydroxypyrrolidin-2-yl)-N—((S)-6-guanidino-1-(methylamino)-1-oxohexan-2-yl)thiazole-4-carboxamide] | 1000 to 5000 nM
CNC(=O)[C@H](CCCCNC(=N)N)NC(=O)c1csc([C@@H]2C[C@@H](O)CN2C(=O)c2cn3cc(Cl)ccc3n2)n1 [Compound 38, 2-((2S,4R)-1-(6-Chloroimidazo[1,2-a]pyridine-2-carbonyl)-4-hydroxypyrrolidin-2-yl)-N—((S)-6-guanidino-1-(methylamino)-1-oxohexan-2-yl)thiazole-4-carboxamide] | > 9900 nM
CNC(=O)[C@H](CCCCNC(=N)N)NC(=O)c1csc([C@@H]2C[C@@H](N)CN2C(=O)c2ccc3ccccc3c2)n1 [Compound 40, 2-((2S,4R)-1-(2-naphthoyl)-4-aminopyrrolidin-2-yl)-N—((S)-6-guanidino-1-(methylamino)-1-oxohexan-2-yl)thiazole-4-carboxamide] | 1000 to 5000 nM
CNC(=O)[C@H](CCCCNC(=N)N)NC(=O)c1csc([C@@H]2C[C@@H](N)CN2C(=O)c2ccc3ncc(Cl)cc3c2)n1 [Compound 41, 2-((2S,4R)-4-amino-1-(3-chloroquinoline-6-carbonyl)pyrrolidin-2-yl)-N—((S)-6-guanidino-1-(methylamino)-1-oxohexan-2-yl)thiazole-4-carboxamide] | 100 to 1000 nM
CNC(=O)[C@H](CCCCNC(=N)N)NC(=O)c1csc([C@@H]2C[C@@H](N)CN2C(=O)c2ccc3c(Cl)csc3c2)n1 [Compound 43, 2-((2S,4R)-4-amino-1-(3-chlorobenzo[b]thiophene-6-carbonyl)pyrrolidin-2-yl)-N—((S)-6-guanidino-1-(methylamino)-1-oxohexan-2-yl)thiazole-4-carboxamide] | 5000 to 9900 nM
CNC(=O)[C@H](CCCCNC(=N)N)NC(=O)c1csc([C@@H]2C[C@@H](N)CN2C(=O)c2cc3cc(Cl)ccc3s2)n1 [Compound 44, 2-((2S,4R)-4-amino-1-(5-chlorobenzo[b]thiophene-2-carbonyl)pyrrolidin-2-yl)-N—((S)-6-guanidino-1-(methylamino)-1-oxohexan-2-yl)thiazole-4-carboxamide] | 100 to 1000 nM
CNC(=O)[C@H](CCCCNC(=N)N)NC(=O)c1csc([C@@H]2C[C@@H](N)CN2C(=O)c2nc3cc(Cl)ccc3s2)n1 [Compound 45, 2-((2S,4R)-4-amino-1-(5-chlorobenzo[d]thiazole-2-carbonyl)pyrrolidin-2-yl)-N—((S)-6-guanidino-1-(methylamino)-1-oxohexan-2-yl)thiazole-4-carboxamide] | ≤ 100 nM
CNC(=O)[C@@H](CCCCNC(=N)N)NC(=O)c1csc([C@@H]2C[C@@H](N)CN2C(=O)c2cc3cc(Cl)ccc3s2)n1 [Compound 57, 2-((2S,4R)-4-amino-1-(5-chlorobenzo[b]thiophene-2-carbonyl)pyrrolidin-2-yl)-N—((R)-6-guanidino-1-(methylamino)-1-oxohexan-2-yl)thiazole-4-carboxamide] | 1000 to 5000 nM

More lines, now with the values ahead:

EC50 | Structure (SMILES)
5000 to 9900 nM | CNC(=O)[C@@H](CCCCNC(=N)N)NC(=O)c1csc([C@@H]2C[C@@H](O)CN2C(=O)c2cn3cc(Cl)ccc3n2)n1 [Compound 39, 2-((2S,4R)-1-(6-Chloroimidazo[1,2-a]pyridine-2-carbonyl)-4-hydroxypyrrolidin-2-yl)-N—((R)-6-guanidino-1-(methylamino)-1-oxohexan-2-yl)thiazole-4-carboxamide]
100 to 1000 nM | N=C(N)NCCCCCNC(=O)c1csc([C@@H]2C[C@@H](N)CN2C(=O)c2cn3cc(Cl)ccc3n2)n1 [Compound 46, 2-((2S,4R)-4-amino-1-(6-chloroimidazo[1,2-a]pyridine-2-carbonyl)pyrrolidin-2-yl)-N-(5-guanidinopentyl)thiazole-4-carboxamide]
≤ 100 nM | N=C(N)c1ccc(CNC(=O)c2csc([C@@H]3C[C@@H](N)CN3C(=O)c3cn4cc(Cl)ccc4n3)n2)cc1 [Compound 47, 2-((2S,4R)-4-amino-1-(6-chloroimidazo[1,2-a]pyridine-2-carbonyl)pyrrolidin-2-yl)-N-(4-carbamimidoylbenzyl)thiazole-4-carboxamide]
100 to 1000 nM | Cc1cc(N)nc(C)c1CNC(=O)c1csc([C@@H]2C[C@@H](N)CN2C(=O)c2cn3cc(Cl)ccc3n2)n1 [Compound 48, 2-((2S,4R)-4-amino-1-(6-chloroimidazo[1,2-a]pyridine-2-carbonyl)pyrrolidin-2-yl)-N-((6-amino-2,4-dimethylpyridin-3-yl)methyl)thiazole-4-carboxamide]
≤ 100 nM | Nc1nccc2cc(CNC(=O)c3csc([C@@H]4C[C@@H](N)CN4C(=O)c4cn5cc(Cl)ccc5n4)n3)ccc12 [Compound 49, 2-((2S,4R)-4-amino-1-(6-chloroimidazo[1,2-a]pyridine-2-carbonyl)pyrrolidin-2-yl)-N-((1-aminoisoquinolin-6-yl)methyl)thiazole-4-carboxamide]
5000 to 9900 nM | NCc1ccc(CNC(=O)c2csc([C@@H]3C[C@@H](N)CN3C(=O)c3cn4cc(Cl)ccc4n3)n2)cc1 [Compound 50, 2-((2S,4R)-4-amino-1-(6-chloroimidazo[1,2-a]pyridine-2-carbonyl)pyrrolidin-2-yl)-N-(4-(aminomethyl)benzyl)thiazole-4-carboxamide]
≤ 100 nM | N=C(N)c1ccc(CCNC(=O)c2csc([C@@H]3C[C@@H](N)CN3C(=O)c3cn4cc(Cl)ccc4n3)n2)cc1 [Compound 51, 2-((2S,4R)-4-amino-1-(6-chloroimidazo[1,2-a]pyridine-2-carbonyl)pyrrolidin-2-yl)-N-(4-carbamimidoylphenethyl)thiazole-4-carboxamide]
> 9900 nM | Cc1cc(N)nc(C)c1CCNC(=O)c1csc([C@@H]2C[C@@H](N)CN2C(=O)c2cn3cc(Cl)ccc3n2)n1 [Compound 52, 2-((2S,4R)-4-amino-1-(6-chloroimidazo[1,2-a]pyridine-2-carbonyl)pyrrolidin-2-yl)-N-(2-(6-amino-2,4-dimethylpyridin-3-yl)ethyl)thiazole-4-carboxamide]
1000 to 5000 nM | NCc1ccc(CCNC(=O)c2csc([C@@H]3C[C@@H](N)CN3C(=O)c3cn4cc(Cl)ccc4n3)n2)cc1 [Compound 54, 2-((2S,4R)-4-amino-1-(6-chloroimidazo[1,2-a]pyridine-2-carbonyl)pyrrolidin-2-yl)-N-(4-(aminomethyl)phenethyl)thiazole-4-carboxamide]
100 to 1000 nM | N[C@@H]1C[C@@H](c2nc(C(=O)NCc3ncn4ccc(Cl)cc34)cs2)N(C(=O)c2cn3cc(Cl)ccc3n2)C1 [Compound 55, 2-((2S,4R)-4-amino-1-(6-chloroimidazo[1,2-a]pyridine-2-carbonyl)pyrrolidin-2-yl)-N-((7-chloroimidazo[1,5-a]pyridin-1-yl)methyl)thiazole-4-carboxamide]
> 9900 nM | N[C@@H]1C[C@@H](c2nc(C(=O)NCc3ccc4cc(Cl)ccc4c3)cs2)N(C(=O)c2cn3cc(Cl)ccc3n2)C1 [Compound 56, 2-((2S,4R)-4-amino-1-(6-chloroimidazo[1,2-a]pyridine-2-carbonyl)pyrrolidin-2-yl)-N-((6-chloronaphthalen-2-yl)methyl)thiazole-4-carboxamide]

— patent US11168083B2, “Inhibitors of Plasma Kallikrein and uses thereof” (Takeda Pharmaceutical Company Limited, priority 2017, dated 2021)
